Reference: US20160287589A1, “SUBSTITUTED-IMIDAZOPYRIDAZINES” (BAYER PHARMA AKTIENGESELLSCHAFT, priority 2013, published 2016)

How the values were obtained:
MKNK1 [1] = target: T1, MKNK1 (Homo sapiens, UniProt Q9BUB5, T385D); test: MKNK1 kinase assay (MKNK1 TR-FRET assay); assay type: biochemical; details: Table 1c; 10 μM ATP, 15 min preincubation
T1 construct: GST (N); purchased Carna Biosciences 02-145; host or cells: insect cells (baculovirus expression system)

MKNK1 [2] = target: T1, MKNK1; test: MKNK1 kinase high ATP assay (TR-FRET-based); assay type: biochemical; details: Table 2c; 2 mM ATP, 15 min preincubation
Procedure, shortened: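 TR-FRET read-out (anti-phospho-S6 Ser236 antibody, Eu/XL665) of biotin-peptide phosphorylation (0.06 μM) at high ATP (2 mM final). Enzyme was GST-MKNK1 full length, T344D, pre-bound to compound for 15 min before a 30 min reaction at 22 °C, pH 7.5. Inhibition scaled between no-inhibitor (0%) and no-enzyme (100%) wells.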

T1 sequence (Q9BUB5 1-424 isoform Q9BUB5-2 T344D): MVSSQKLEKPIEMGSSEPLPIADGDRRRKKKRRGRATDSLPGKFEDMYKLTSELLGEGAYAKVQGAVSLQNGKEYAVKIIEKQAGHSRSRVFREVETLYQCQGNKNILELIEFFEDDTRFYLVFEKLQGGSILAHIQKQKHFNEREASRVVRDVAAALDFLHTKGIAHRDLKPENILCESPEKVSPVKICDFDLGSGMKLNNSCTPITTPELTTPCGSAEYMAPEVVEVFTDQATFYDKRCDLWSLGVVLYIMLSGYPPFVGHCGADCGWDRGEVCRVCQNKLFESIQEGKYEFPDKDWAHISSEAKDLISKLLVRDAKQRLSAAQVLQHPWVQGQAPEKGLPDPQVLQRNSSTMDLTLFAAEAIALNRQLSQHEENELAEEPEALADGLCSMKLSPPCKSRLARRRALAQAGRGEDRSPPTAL

Structure (SMILES) | IC50 (MKNK1 [1]) | IC50 (MKNK1 [2])
CS(=O)(=O)CCCOc1ccc2ncc(-c3cc4c(N5CCCC5)nccc4o3)n2n1 [III-44, 6-[3-(Methylsulfonyl)propoxy]-3-[4-(pyrrolidin-1-yl)furo[3,2-c]pyridin-2-yl]imidazo[1,2-b]pyridazine] | 5.5 nM | 14.9 nM
CS(=O)(=O)CCCOc1ccc2ncc(-c3cc4c(N5CCCCC5)nccc4o3)n2n1 [III-45, 6-[3-(methylsulfonyl)propoxy]-3-[4-(piperidin-1-yl)furo[3,2-c]pyridin-2-yl]imidazo[1,2-b]pyridazine] | 4.4 nM | 8.1 nM
CN(C)[C@@H]1CCN(c2nccc3oc(-c4cnc5ccc(OCCCS(C)(=O)=O)nn45)cc23)C1 [III-46, (3R)—N,N-Dimethyl-1-(2-{6-[3-(methylsulfonyl)propoxy]imidazo[1,2-b]pyridazin-3-yl}furo[3,2-c]pyridin-4-yl)pyrrolidin-3-amine] | 3.9 nM | 3.6 nM
CN(CCCN1CCCC1)c1nccc2oc(-c3cnc4ccc(OCCCS(C)(=O)=O)nn34)cc12 [III-47, N-methyl-2-{6-[3-(methylsulfonyl)propoxy]imidazo[1,2-b]pyridazin-3-yl}-N-[3-(pyrrolidin-1-yl)propyl]furo[3,2-c]pyridin-4-amine] | 13.6 nM | 21.2 nM
CC(C)(C)N1CCN(c2nccc3oc(-c4cnc5ccc(OCCCS(C)(=O)=O)nn45)cc23)CC1 [III-48, 3-[4-(4-tert-Butylpiperazin-1-yl)furo[3,2-c]pyridin-2-yl]-6-[3-(methylsulfonyl)-propoxy]imidazo[1,2-b]pyridazine] | 11.9 nM | 32.1 nM
CC(C)(C)OC(=O)N1CCN(c2nccc3oc(-c4cnc5ccc(OCCCS(C)(=O)=O)nn45)cc23)CC1 [III-49, tert-Butyl 4-(2-{6-[3-(methylsulfonyl)propoxy]imidazo[1,2-b]pyridazin-3-yl}furo[3,2-c]pyridin-4-yl)piperazine-1-carboxylate] | 21.3 nM | 38.5 nM
CCN(CCOC)c1nccc2oc(-c3cnc4ccc(OCCCS(C)(=O)=O)nn34)cc12 [III-50, N-Ethyl-N-(2-methoxyethyl)-2-{6-[3-(methylsulfonyl)propoxy]imidazo[1,2-b]pyridazin-3-yl}furo[3,2-c]pyridin-4-amine] | 1.4 nM | 0.5 nM
CC(=O)N1CCN(c2nccc3oc(-c4cnc5ccc(OCCCS(C)(=O)=O)nn45)cc23)CC1 [III-51, 1-[4-(2-{6-[3-(Methylsulfonyl)propoxy]imidazo[1,2-b]pyridazin-3-yl}furo[3,2-c]pyridin-4-yl)piperazin-1-yl]ethanone] | 7.3 nM | 14.2 nM
COCCN(C)c1nccc2oc(-c3cnc4ccc(OCCCS(C)(=O)=O)nn34)cc12 [III-52, N-(2-Methoxyethyl)-N-methyl-2-{6-[3-(methylsulfonyl)propoxy]imidazo[1,2-b]pyridazin-3-yl}furo[3,2-c]pyridin-4-amine] | 1.8 nM | 3.7 nM
C[C@@H]1CN(c2nccc3oc(-c4cnc5ccc(OCCCS(C)(=O)=O)nn45)cc23)C[C@H](C)O1 [III-53, 3-{4-[(2R,6S)-2,6-Dimethylmorpholin-4-yl]furo[3,2-c]pyridin-2-yl}-6-[3-(methyl-sulfonyl)propoxy]imidazo[1,2-b]pyridazine] | 8.7 nM | 26.7 nM
CN(CCCO)c1nccc2oc(-c3cnc4ccc(OCCCS(C)(=O)=O)nn34)cc12 [III-54, 3-[Methyl(2-{6-[3-(methylsulfonyl)propoxy]imidazo[1,2-b]pyridazin-3-yl}furo[3,2-c]pyridin-4-yl)amino]propan-1-ol] | 2.8 nM | 6.2 nM
CN(C)C1CCN(c2nccc3oc(-c4cnc5ccc(OCCCS(C)(=O)=O)nn45)cc23)CC1 [III-55, N,N-Dimethyl-1-(2-{6-[3-(methylsulfonyl)propoxy]imidazo[1,2-b]pyridazin-3-yl}furo[3,2-c]pyridin-4-yl)piperidin-4-amine] | 3.7 nM | 7.8 nM
CS(=O)(=O)CCCOc1ccc2ncc(-c3cc4c(N5CCN(c6ccccc6)CC5)nccc4o3)n2n1 [III-56, 6-[3-(Methylsulfonyl)propoxy]-3-[4-(4-phenylpiperazin-1-yl)furo[3,2-c]pyridin-2-yl]imidazo[1,2-b]pyridazine] | 20.8 nM | 16.9 nM
CS(=O)(=O)CCCOc1ccc2ncc(-c3cc4c(N5CCC(CO)CC5)nccc4o3)n2n1 [III-57, [1-(2-{6-[3-(Methylsulfonyl)propoxy]imidazo[1,2-b]pyridazin-3-yl}furo[3,2-c]pyridin-4-yl)piperidin-4-yl]methanol] | 1.5 nM | 3.6 nM
C[C@@H]1COCCN1c1nccc2oc(-c3cnc4ccc(OCCCS(C)(=O)=O)nn34)cc12 [III-58, 3-{4-[(3R)-3-Methylmorpholin-4-yl]furo[3,2-c]pyridin-2-yl}-6-[3-(methyl-sulfonyl)propoxy]imidazo[1,2-b]pyridazine] | 1 nM | 4.4 nM
CN1CCN(c2nccc3oc(-c4cnc5ccc(OC[C@H]6CCC(=O)N6)nn45)cc23)CC1 [III-61, (5R)-5-[({3-[4-(4-Methylpiperazin-1-yl)furo[3,2-c]pyridin-2-yl]imidazo[1,2-b]pyridazin-6-yl}oxy)methyl]pyrrolidin-2-one] | 1 nM | 1.2 nM
O=C1CC[C@H](COc2ccc3ncc(-c4cc5c(N6CCCCC6)nccc5o4)n3n2)N1 [III-62, (5R)-5-[({3-[4-(Piperidin-1-yl)furo[3,2-c]pyridin-2-yl]imidazo[1,2-b]pyridazin-6-yl}oxy)methyl]pyrrolidin-2-one] | 2.4 nM | 1 nM
CC(C)(C)N1CCN(c2nccc3oc(-c4cnc5ccc(OC[C@H]6CCC(=O)N6)nn45)cc23)CC1 [III-63, (5R)-5-[({3-[4-(4-tert-Butylpiperazin-1-yl)furo[3,2-c]pyridin-2-yl]imidazo-[1,2-b]pyridazin-6-yl}oxy)methyl]pyrrolidin-2-one] | 4.3 nM | 12.6 nM
CN(C)[C@@H]1CCN(c2nccc3oc(-c4cnc5ccc(OC[C@H]6CCC(=O)N6)nn45)cc23)C1 [III-64, (5R)-5-{[(3-{4-[(3R)-3-(Dimethylamino)pyrrolidin-1-yl]furo[3,2-c]pyridin-2-yl}imidazo[1,2-b]pyridazin-6-yl)oxy]methyl}pyrrolidin-2-one] | 0.4 nM | 0.1 nM
CN1CCC(N(C)c2nccc3oc(-c4cnc5ccc(OC[C@H]6CCC(=O)N6)nn45)cc23)CC1 [III-65, (5R)-5-{[(3-{4-[Methyl(1-methylpiperidin-4-yl)amino]furo[3,2-c]pyridin-2-yl}imidazo[1,2-b]pyridazin-6-yl)oxy]methyl}pyrrolidin-2-one] | 11.6 nM | 19.9 nM
CC(C)(C)[Si](C)(C)OC[C@H]1CCCN1c1nccc2oc(-c3cnc4ccc(OC[C@H]5CCC(=O)N5)nn34)cc12 [III-66, (5R)-5-{[(3-{4-[(2R)-2-({[tert-Butyl(dimethyl)silyl]oxy}methyl)pyrrolidin-1-yl]furo[3,2-c]pyridin-2-yl}imidazo[1,2-b]pyridazin-6-yl)oxy]methyl}pyrrolidin-2-one] | 4.2 nM | 8.5 nM
O=C1CC[C@H](COc2ccc3ncc(-c4cc5c(N6CCC[C@@H]6CO)nccc5o4)n3n2)N1 [III-67, (5R)-5-{[(3-{4-[(2R)-2-(Hydroxymethyl)pyrrolidin-1-yl]furo[3,2-c]pyridin-2-yl}imidazo[1,2-b]pyridazin-6-yl)oxy]methyl}pyrrolidin-2-one] | 10.7 nM | 11 nM
O=C1CC[C@H](COc2ccc3ncc(-c4cc5c(N6CCOCC6)nccc5o4)n3n2)N1 [III-68, (5R)-5-[({3-[4-(Morpholin-4-yl)furo[3,2-c]pyridin-2-yl]imidazo[1,2-b]pyridazin-6-yl}oxy)methyl]pyrrolidin-2-one] | 0.5 nM | 0.7 nM
CCN(CCOC)c1nccc2oc(-c3cnc4ccc(OC[C@H]5CCC(=O)N5)nn34)cc12 [III-69, (5R)-5-{[(3-{4-[Ethyl(2-methoxyethyl)amino]furo[3,2-c]pyridin-2-yl}imidazo[1,2-b]pyridazin-6-yl)oxy]methyl}pyrrolidin-2-one] | 0.4 nM | 0.1 nM
CC(C)(C)OC(=O)N1CCN(c2nccc3oc(-c4cnc5ccc(OC[C@H]6CCC(=O)N6)nn45)cc23)CC1 [III-70, tert-Butyl 4-[2-(6-{[(2R)-5-oxopyrrolidin-2-yl]methoxy}imidazo[1,2-b]pyridazin-3-yl)furo[3,2-c]pyridin-4-yl]piperazine-1-carboxylate] | 4.8 nM | 13.5 nM
O=C1CC[C@H](COc2ccc3ncc(-c4cc5c(N6CCNCC6)nccc5o4)n3n2)N1 [III-71, (5R)-5-[({3-[4-(Piperazin-1-yl)furo[3,2-c]pyridin-2-yl]imidazo[1,2-b]pyridazin-6-yl}oxy)methyl]pyrrolidin-2-one] | 2 nM | 1.4 nM
C[C@@H]1CN(c2nccc3oc(-c4cnc5ccc(OC[C@H]6CCC(=O)N6)nn45)cc23)C[C@H](C)O1 [III-72, (5R)-5-{[(3-{4-[(2R,6S)-2,6-Dimethylmorpholin-4-yl]furo[3,2-c]pyridin-2-yl}imidazo[1,2-b]pyridazin-6-yl)oxy]methyl}pyrrolidin-2-one] | 1 nM | 2 nM
CN(CCCO)c1nccc2oc(-c3cnc4ccc(OC[C@H]5CCC(=O)N5)nn34)cc12 [III-73, (5R)-5-{[(3-{4-[(3-Hydroxypropyl)(methyl)amino]furo[3,2-c]pyridin-2-yl}imidazo[1,2-b]pyridazin-6-yl)oxy]methyl}pyrrolidin-2-one] | 0.6 nM | 0.8 nM
